{
  "source": "ChEMBL document CHEMBL5214984",
  "about": "“Identification of Organic Anion Transporter 2 Inhibitors: Screening, Structure-Based Analysis, and Clinical Drug Interaction Risk Assessment” (J Med Chem, 2022)",
  "key": {"[1]": {"experiment": "Inhibition of human OAT2 tv.1 variant expressed in HEK293 cells assessed as inhibition of [3H]cGMP uptake by scintillation analysis", "type": "ADME, cell-based", "conditions": "HEK293, 3 h"}, "[2]": {"experiment": "Dissociation constant, pKa of the compound", "type": "physicochemical"}, "[3]": {"experiment": "Lipophilicity, log D of the compound", "conditions": "octanol/water"}},
  "data": [
    {"smiles": "COC(=O)C1=C(C)NC(C)=C(C(=O)OC)C1c1ccccc1[N+](=O)[O-]", "note": "[NIFEDIPINE]", "values": [
      {"measurement": "IC50", "setting": "[1]", "result": 6.5, "unit": "µM"}
    ]},
    {"smiles": "Nc1nc2[nH]cc(CCc3ccc(C(=O)N[C@@H](CCC(=O)O)C(=O)O)cc3)c2c(=O)[nH]1", "note": "[PEMETREXED]", "values": [
      {"measurement": "pKa", "setting": "[2]", "result": 3.5},
      {"measurement": "logD", "setting": "[3]", "result": -1.93}
    ]},
    {"smiles": "CCN(CC)C(=O)/C(C#N)=C/c1cc(O)c(O)c([N+](=O)[O-])c1", "note": "[ENTACAPONE]", "values": [
      {"measurement": "IC50", "setting": "[1]", "result": 1.9, "unit": "µM"},
      {"measurement": "pKa", "setting": "[2]", "result": 4.2},
      {"measurement": "logD", "setting": "[3]", "result": 0.23}
    ]},
    {"smiles": "CN(C)CCc1c[nH]c2ccc(C[C@H]3COC(=O)N3)cc12", "note": "[ZOLMITRIPTAN]", "values": [
      {"measurement": "pKa", "setting": "[2]", "result": 8.7},
      {"measurement": "logD", "setting": "[3]", "result": -0.63}
    ]},
    {"smiles": "CN(C)C(=O)CCSC(SCCC(=O)O)c1cccc(/C=C/c2ccc3ccc(Cl)cc3n2)c1", "note": "(stereo not given) [MK-571]", "values": [
      {"measurement": "IC50", "setting": "[1]", "result": 9.5, "unit": "µM"},
      {"measurement": "pKa", "setting": "[2]", "result": 4.6},
      {"measurement": "logD", "setting": "[3]", "result": 2.55}
    ]},
    {"smiles": "N=C(N)NCCCNC(=O)[C@@H]1CCCCN1C(=O)[C@@H](CC1CCCCC1)NCC(=O)O", "note": "[INOGATRAN]", "values": [
      {"measurement": "pKa", "setting": "[2]", "result": 2.1},
      {"measurement": "logD", "setting": "[3]", "result": 0.04}
    ]},
    {"smiles": "COc1ccc(Cl)cc1C(=O)NCCc1ccc(S(=O)(=O)NC(=O)NC2CCCCC2)cc1", "note": "[GLYBURIDE]", "values": [
      {"measurement": "IC50", "setting": "[1]", "result": 14.9, "unit": "µM"},
      {"measurement": "logD", "setting": "[3]", "result": 2.15}
    ]},
    {"smiles": "O=C1CN(/N=C/c2ccc(-c3ccc([N+](=O)[O-])cc3)o2)C(=O)N1", "note": "[DANTROLENE]", "values": [
      {"measurement": "IC50", "setting": "[1]", "result": 16, "unit": "µM"}
    ]},
    {"smiles": "CNCC[C@@H](Oc1ccccc1C)c1ccccc1", "note": "[ATOMOXETINE]", "values": [
      {"measurement": "pKa", "setting": "[2]", "result": 9.6},
      {"measurement": "logD", "setting": "[3]", "result": 0.57}
    ]},
    {"smiles": "COc1cccc(OC)c1C(=O)N[C@@H]1C(=O)N2[C@@H]1SC(C)(C)[C@@H]2C(=O)O", "note": "[METHICILLIN]", "values": [
      {"measurement": "pKa", "setting": "[2]", "result": 2.8},
      {"measurement": "logD", "setting": "[3]", "result": -1.88}
    ]},
    {"smiles": "N[C@@H]1[C@H]2CN(c3nc4c(cc3F)c(=O)c(C(=O)O)cn4-c3ccc(F)cc3F)C[C@@H]12", "note": "[TROVAFLOXACIN]", "values": [
      {"measurement": "IC50", "setting": "[1]", "result": 11.5, "unit": "µM"},
      {"measurement": "pKa", "setting": "[2]", "result": 6},
      {"measurement": "logD", "setting": "[3]", "result": 0.42}
    ]},
    {"smiles": "CNS(=O)(=O)Cc1ccc2[nH]cc(CCN(C)C)c2c1", "values": [
      {"measurement": "pKa", "setting": "[2]", "result": 8.7},
      {"measurement": "logD", "setting": "[3]", "result": -1.08}
    ]},
    {"smiles": "CC(C)(C)NCC(O)COc1cccc2c1CC(O)C(O)C2", "note": "(stereo not given) [NADOLOL]", "values": [
      {"measurement": "pKa", "setting": "[2]", "result": 9.3},
      {"measurement": "logD", "setting": "[3]", "result": -1.19}
    ]},
    {"smiles": "Cc1noc(NS(=O)(=O)c2ccc(N)cc2)c1C", "note": "[SULFISOXAZOLE]", "values": [
      {"measurement": "pKa", "setting": "[2]", "result": 4.8},
      {"measurement": "logD", "setting": "[3]", "result": -1.17}
    ]},
    {"smiles": "O=C1NC(=O)N(/N=C/c2ccc(-c3ccc([N+](=O)[O-])cc3)o2)C1O", "note": "(stereo not given)", "values": [
      {"measurement": "IC50", "setting": "[1]", "result": 16, "unit": "µM"}
    ]},
    {"smiles": "CNn1cc(C(=O)O)c(=O)c2cc(F)c(N3CCN(C)CC3)cc21", "note": "[AMIFLOXACIN]", "values": [
      {"measurement": "pKa", "setting": "[2]", "result": 6.3},
      {"measurement": "logD", "setting": "[3]", "result": -0.08}
    ]},
    {"smiles": "Cc1ccc(O)c([C@H](CCN(C(C)C)C(C)C)c2ccccc2)c1", "note": "[TOLTERODINE]", "values": [
      {"measurement": "pKa", "setting": "[2]", "result": 9.2},
      {"measurement": "logD", "setting": "[3]", "result": 1.82}
    ]},
    {"smiles": "O=C(O)CSc1nnc(Br)n1-c1ccc(C2CC2)c2ccccc12", "values": [
      {"measurement": "IC50", "setting": "[1]", "result": 11.5, "unit": "µM"},
      {"measurement": "pKa", "setting": "[2]", "result": 3.4},
      {"measurement": "logD", "setting": "[3]", "result": 0.46}
    ]},
    {"smiles": "CCCc1nc2c(C)cc(-c3nc4ccccc4n3C)cc2n1Cc1ccc(-c2ccccc2C(=O)O)cc1", "values": [
      {"measurement": "IC50", "setting": "[1]", "result": 13.7, "unit": "µM"},
      {"measurement": "pKa", "setting": "[2]", "result": 3.6},
      {"measurement": "logD", "setting": "[3]", "result": 2.35}
    ]},
    {"smiles": "CN(C)CCCN1c2ccccc2CCc2ccccc21", "note": "[IMIPRAMINE]", "values": [
      {"measurement": "pKa", "setting": "[2]", "result": 9}
    ]},
    {"smiles": "COc1ccc2c(c1)c(CC(=O)O)c(C)n2C(=O)c1ccc(Cl)cc1", "note": "[INDOMETHACIN]", "values": [
      {"measurement": "IC50", "setting": "[1]", "result": 2.9, "unit": "µM"},
      {"measurement": "logD", "setting": "[3]", "result": 1.03}
    ]},
    {"smiles": "CCCCc1nc(C)c(CC(=S)N(C)C)c(=O)n1Cc1ccc(-c2ccccc2-c2nnn[nH]2)cc1", "values": [
      {"measurement": "IC50", "setting": "[1]", "result": 15.7, "unit": "µM"},
      {"measurement": "pKa", "setting": "[2]", "result": 4.2},
      {"measurement": "logD", "setting": "[3]", "result": 0.91}
    ]},
    {"smiles": "C[C@H]1CN(C[C@H](Cc2ccccc2)C(=O)NCC(=O)O)CC[C@@]1(C)c1cccc(O)c1", "note": "[ALVIMOPAN]", "values": [
      {"measurement": "pKa", "setting": "[2]", "result": 3.2},
      {"measurement": "logD", "setting": "[3]", "result": 0.65}
    ]},
    {"smiles": "CC(C(=O)O)c1cccc(C(=O)c2ccccc2)c1", "note": "(stereo not given) [KETOPROFEN]", "values": [
      {"measurement": "IC50", "setting": "[1]", "result": 14.9, "unit": "µM"},
      {"measurement": "logD", "setting": "[3]", "result": 0.21}
    ]}
  ]
}
